Test results as given in US10928381B2, “In vitro methods of monitoring autophagy in a human cell using a photoconvertable fluorescent protein linked biomarker” (The Regents of the University of Michigan, priority 2018, dated 2021).

Columns and labels:
Dendra2-LC3 HEK cells [1] = experiment: Native (green, GFP) Dendra2-LC3 intensity and puncta, phase I primary screen readout (T15/T0); format: cell-based, human; details: for Phase I result, normalized GFP intensity (T15/T0): 15 h
Source text: Conventional methods for estimating autophagy flux rely upon the assessment of LC3 or other autophagy substrates by Western blotting or immunocytochemistry (Ref. 27; herein incorporated by reference in its entirety); by their very nature, these techniques are static and limited to dead cells. Fluorescence-based methods that use tagged substrates allow visualization of autophagy within living cells, but typically require the overexpression of autophagy target proteins that may disrupt the very process they are intended to measure. To assess autophagy in human cells without compromising or interfering with the pathway, experiments were conducted during development of embodiments herein utilizing CRISPR/Cas9 genome editing (Refs. 29-30; herein incorporated by reference in their entireties) to insert the Dendra2 open reading frame into the MAP1LC3B locus (encoding LC3) of HEK cells (FIG. 2a). A mutated, nickase version of Cas9 (Cas9n) was used that is incapable of making double-stranded DNA breaks, thereby minimizing the risk of non-homologous end joining and unwanted insertions or deletions (Refs. 29, 35; herein incorporated by reference in their entireties). Two separate single guide RNAs (sgRNAs) were designed that recognize sequences just upstream and downstream of the MAP1LC3B start codon, and a homology directed repair (HDR) vector encoding the Dendra2 open reading frame flanked by 400 bp of homologous sequence surrounding the MAP1LC3B start codon (FIG. 2a). Following expression of the sgRNAs, Cas9n and the HDR in HEK cells, colonies were selected based upon green fluorescence and passaged to homogeneity (FIG. 2b). The insertion site was confirmed by DNA sequencing, PCR, and immunocytochemistry using antibodies that recognize LC3. Providing further validation of the insertion, transfection with siRNA directed against the MAP1LC3B locus elicited a significant reduction in Dendra2-LC3 protein levels as measured by western blotting and native GFP fluorescence (FIG. 2c, d). In untreated cells, Dendra2-LC3 fluorescence appears diffuse, as expected (FIG. 3a). […] Second, autophagy induction in these cells is accompanied not only by the formation of puncta, but also by relative decreases in diffuse Dendra2-LC3 fluorescence, as indicated by the model in FIG. 1.
(§1) For these studies the potent mTOR inhibitor torin1 (Ref. 36; herein incorporated by reference in its entirety) was selected as a positive control for autophagy induction, and the vacuolar ATPase inhibitor bafilomycin-A1 (Ref. 37; herein incorporated by reference in its entirety) as a positive control for autophagy inhibition. In each case, DMSO served as a vehicle (negative) control. Dendra2-LC3 was photoconverted immediately prior to drug application, and the fluorescence intensity in the green (GFP) and red (RFP) channels was measured at regular intervals for 15 h.
The Z′ value for the effect of torin1 on the normalized GFP intensity, calculated as a ratio of GFP intensity at 15 h to that at 0 h (T15/T0), was 0.63 when the assay was conducted in a 96-well format in our laboratory, and 0.56 when conducted in a 384-well format at the Center for Chemical Genomics (CCG, FIG. 3e), indicative of a robust screening platform (Ref. 38; herein incorporated by reference in its entirety). […] The false negative rate was near zero, ensuring a highly sensitive assay.
The possibility that cell death and toxicity mimics the reduction in GFP intensity that would otherwise denote autophagy induction was also addressed. To avoid confounding from toxicity, the area occupied by cells in each image is calculated using ImageJ software and used as a proxy for cell number; since all wells received the same number of cells, >25% reductions in the area occupied by cells at the end of the experiment indicates toxicity. The formation of Dendra2-LC3 puncta in each condition is scored simultaneously using the ‘analyze particles’ function in ImageJ. […]

Dendra2-LC3 HEK cells [2] = experiment: Optical pulse labeling: time-dependent decay of photoconverted (red, RFP/TRITC) Dendra2-LC3 as measure of autophagic flux; format: cell-based, human; set-up: key to Hit class in screen of Enzo Autophagy compound library (9H RFP/0H RFP): enhancer: [Sample9H RFP/OH RFP]<[DMSO9H RFP/OH RFP−3SDDMSO]; inhibitor: [Sample9H RFP/OH RFP]>[DMSO9H RFP/OH RFP 3SDDMSO]; details: for Hit class in screen of Enzo Autophagy compound library (9H RFP/0H RFP): 10 uM, 9 hours after drug addition; for Phase II result, Dendra2-LC3 degradation kinetics: in comparison to DMSO
Description: FIGS. 8A-E. Time dependent decay of Dendra2-LC3 as an assay of autophagic flux. (FIG. 8A) Dendra2-LC3 reporter cells were imaged prior to photoconversion to measure background TRITC intensity. Immediately following photoconversion with a 5 second pulse of […] light, cells were treated with DMSO, 1 uM Torin1, or 10 nM Bafilomycin-A1 and then were subsequently imaged at the indicated time points. Images are psuedocolored to better highlight intensity differences. (FIGS. 8B-E) Time dependent changes in photoconverted Dendra2-LC3 fluorescence in the TRITC (FIGS. 8B, D) and GFP (FIGS. 8C, E) channels. Gray boxes represent the pre and post-photoconversion time points. TRITC intensity values are normalized, setting the background intensity prior to conversion to 0 and the post-conversion value to 1. GFP values are normalized to the pre-conversion intensity. Error bars represent the SEM from three replicate experiments. […] (FIG. 8C) Following photoconversion there is a 40% drop in GFP intensity. As new Dendra2-LC3 is synthesized, GFP levels return to pre-photoconversion levels over the span of 13.5 hours. […] Cells were transfected with 20 nM ATG5 siRNA two days prior to imaging.
FIG. 9A-C. Evaluating the efficacy of known autophagy modulators. (FIG. 9A) An unbiased screen of the Enzo Autophagy compound library identified several known autophagy compounds as hits providing construct validity to the assay. Rapamycin, NVP-BEZ235 and AKT inhibitor X, were among the compounds appropriately identified as enhancers while Bafilomycin registered as an inhibitor. […] Cells were imaged in RFP to measure background fluorescence, then photoconverted with a 4 second DAPI exposure and immediately imaged again to establish the postconversion intensity. Drugs from the Enzo Autophagy library were added at a concentration of 10 uM via a robotic liquid handler. 9 hours later the cells were imaged again in order to assess the efficacy of the drugs. Hits were defined as follows: enhancer: [Sample9H RFP/OH RFP]<[DMSO9H RFP/OH RFP−3SDDMSO], inhibitor: [Sample9H RFP/OH RFP]>[DMSO9H RFP/OH RFP 3SDDMSO]. […] Imaging of the compound library was repeated in GFP. Intensity values are reported 15 hours after drug treatment. (FIG. 9C) The reduction in Dendra2-LC3 half-life observed upon treatment of autophagic flux enhancers is attenuated with partial knockdown of ATG5. Cells were transfected with 20 nM ATG5 siRNA 2 days prior to imaging. Error bars represent SEM from three replicate experiments.
Experiments were conducted during development of embodiments herein to develop a sensitive method—optical pulse labeling (OPL)—that takes advantage of the photoconvertible fluorescent protein Dendra2 for estimations of autophagic flux in cellulo (Refs 14, 34; herein incorporated by reference in their entireties) (FIG. 1b). […] Dendra2 was fused to LC3, a specific marker of autophagosomes and itself an autophagy substrate (Refs. 27, 31; herein incorporated by reference in their entireties). Following photoconversion, the time-dependent reduction in red LC3-Dendra2 (FIG. 1c) is used to calculate protein half-life, representing an estimate of autophagy flux for individual cells (Refs. 14, 34; herein incorporated by reference in their entireties) Furthermore, because LC3 is degraded as autophagosomes mature, the return to steady-state levels of green Dendra2-LC3 after photoconversion (FIG. 1d) reflects activity within the pathway as a whole. The assay is noninvasive, permitting longitudinal analyses of autophagy kinetics in living cells, and amenable to HTS.
as §1, with “Dendra2-LC3 was photoconverted immediately prior to drug application, and the fluorescence intensity in the green (GFP) and red (RFP) channels was measured at regular intervals for 15 h.” left out

[3] = system: primary rat cortical neurons overexpressing WT-TDP43-GFP; experiment: Survival of primary neurons overexpressing TDP43, automated fluorescence microscopy; format: cell-based; details: 25 nM
[4] = system: Tandem reporter (RFP-GFP-LC3) HeLa cells; experiment: Tandem reporter (RFP-GFP-LC3) assay, % of RFP puncta that are GFP positive; format: cell-based; details: imaged after 12 hours
Description: FIG. 13A-E. Validation of novel autophagy inhibitors with an independent measure of autophagic flux. (FIG. 13A) Tandem reporter (RFP-GFP-LC3) HeLa cells treated with the indicated compounds and imaged after 12 hours in RFP (middle panels) GFP (bottom panels). […] Concentrations used correspond to the lowest dose resulting in the maximum degree of colocalization between GFP and RFP puncta as calculated in (B). These are: 3 nM Bafilomycin, 1 uM Quinacrine, 50 uM 245536, and 100 uM of 254522, 45808, 234794, and 237373. (Scale bar: 50 μm) (FIG. 13B) The percentage of RFP positive puncta that are also GFP positive in tandem reporter HeLa cells was analyzed using Cell Profiler. First GFP (1a) and RFP (1b) images of the same field of cells are uploaded into Cell Profiler. Using the GFP images, nuclei are identified (2a-green outlines) and a nuclear mask (2b) is generated. […] Cellular boundries are identified (3a-purple outlines) and a cellular mask is created. […] Only puncta within this mask will be evaluated in subsequent steps. […] (FIG. 13D) Tandem reporter HeLa cells were imaged once prior to drug treatment and then treated with the lowest dose that produced the maximum response as calculated in (FIG. 13C) and imaged immediately after. […] Each point is calculated by taking the mean % of (GFP+/RFP+ puncta)/(RFP+) from 8 technical replicates. […]

| Compound | Phase I result, normalized GFP intensity (T15/T0) (Dendra2-LC3 HEK cells [1]; Prestwick and Enzo collections) | Hit class in screen of Enzo Autophagy compound library (9H RFP/0H RFP) (Dendra2-LC3 HEK cells [2]) | Phase II result, Dendra2-LC3 degradation kinetics (Dendra2-LC3 HEK cells [2]) | further results |
| --- | --- | --- | --- | --- |
| CCN(CC)CCCCN1c2ccccc2Oc2ccc(Cl)cc21 [AKT inhibitor X] | autophagy inducers | enhancer | – | – |
| OCCN1CCN(CCCN2c3ccccc3Sc3ccc(C(F)(F)F)cc32)CC1 [Fluphenazine] | – | – | – | Formation of Dendra2-LC3 (LC3-positive) puncta (Dendra2-LC3 HEK cells [1]; FPZ 0.5 μM, torin1 1 μM): elicits the formation of LC3-positive puncta; GFP intensity of native Dendra2-LC3 (Dendra2-LC3 HEK cells [1]; FPZ 0.5 μM, torin1 1 μM, vs DMSO): reduces the steady-state GFP intensity |
| Cn1c(=O)n(-c2ccc(C(C)(C)C#N)cc2)c2c3cc(-c4cnc5ccccc5c4)ccc3ncc21 [NVP-BEZ235] | – | enhancer | – | Effect on TDP43 toxicity [3]: suppresses toxicity; Hazard ratio, Cox proportional hazards analysis ([3]; p<0.05): 0.89; Rank among autophagy inducers in phase I (Dendra2-LC3 HEK cells [1]; Prestwick and Enzo collections): rank among the most potent inducers |
| CCN(CC)CCCC(C)Nc1c2ccc(Cl)cc2nc2ccc(OC)cc12 (stereo not drawn) [Quinacrine] | – | – | – | Lowest dose resulting in the maximum degree of colocalization between GFP and RFP puncta [4]: 1 µM |
| CO[C@H]1C[C@@H]2CC[C@@H](C)[C@@](O)(O2)C(=O)C(=O)N2CCCC[C@H]2C(=O)O[C@H]([C@H](C)C[C@@H]2CC[C@@H](O)[C@H](OC)C2)CC(=O)[C@H](C)/C=C(\C)[C@@H](O)[C@@H](OC)C(=O)[C@H](C)C[C@H](C)/C=C/C=C/C=C/1C [Rapamycin] | – | enhancer | – | – |
| O=C(CCCCCN1C(=O)c2cccc3cccc(c23)C1=O)NO [Scriptaid] | significant increases in Dendra2-LC3 GFP fluorescence | – | significantly slowed Dendra2-LC3 degradation | – |
| NC(=O)N1c2ccccc2C=Cc2ccccc21 [carbamazepine] | significant increases in Dendra2-LC3 GFP fluorescence | failure to markedly affect flux | significantly slowed Dendra2-LC3 degradation | – |
| C[C@@H]1C[C@@H]([C@H](O)CC2CC(=O)NC(=O)C2)C(=O)[C@@H](C)C1 [cycloheximide] | potential autophagy inducers | – | failed to affect Dendra2-LC3 degradation kinetics | – |
| OC[C@H]1O[C@H](O[C@H]2O[C@H](CO)[C@@H](O)[C@H](O)[C@H]2O)[C@H](O)[C@@H](O)[C@@H]1O [trehalose] | – | failure to markedly affect flux | – | – |
